{"source": "patent US7087253B2", "about": "(AKH Arzneimittelkontor GmbH, priority 2002, dated 2006)", "test_system": "patients with acute bronchitis", "test": "double blind, randomized, placebo-controlled clinical study, 14-day treatment of acute bronchitis", "type": "in vivo", "procedure": "A parallel group of patients was treated for 14 days correspondingly with placebo or cefuroxime."}
{"smiles": "CO/N=C(\\C(=O)N[C@@H]1C(=O)N2C(C(=O)O)=C(COC(N)=O)CS[C@H]12)c1ccco1", "note": "[cefuroxime]", "values": [{"measurement": "patients still with a pathological ausculatory finding", "setting": "after 7±2 treatment days", "result": 26.3, "unit": "%"}, {"measurement": "patients who experienced a worsening of the symptoms (terminations because of a worsening of the acute bronchitis)", "setting": "after 7±2 treatment days", "result": 7.6, "unit": "%"}, {"measurement": "patients with worsening of the acute bronchitis", "setting": "after 14±2 treatment days", "result": 16.4, "unit": "%"}, {"measurement": "patients with worsening, times as many as in the Eucalyptus oil/orange oil group", "setting": "after 14±2 treatment days", "result": 10, "unit": "times"}, {"measurement": "patients still with a pathological ausculatory finding (pathological respiratory sounds)", "setting": "after 14±2 days", "result": 7.6, "unit": "%"}, {"measurement": "general state of health, Eucalyptus oil/orange oil group versus cefuroxime group", "setting": "human, in vivo", "result": "no differences worth mentioning"}]}
